Data set [1] deals with human hepatocytes (HHeps). The following applies: HHeps (asterisk); ref 13 (JWH-122, MAM-2201, Cl-, Br-, I-JWH-122), 105 (AM1220); cited from earlier work.
For data set [2] the following is noted: cited from earlier work.
A short description of data set [3]: Chromatographic hydrophobicity index (CHI) log D at pH 7.4. The following applies: reversed-phase HPLC, Acquity BEH C18 column.
Procedure: Chromatographic hydrophobicity index (CHI) log D samples (see below) were analysed using high-performance liquid chromatography (HPLC) with a Shimadzu Nexera X2 HPLC coupled to a Shimadzu SPD-30 MA photodiode array detector (PDA) (Shimadzu, Kyoto, Japan). […] The sample chamber was maintained at 25 °C. Gradient elution was performed, with mobile phase (MP) consisting of ammonium acetate in water (10 mM, pH 7.4) (MP A) and acetonitrile (MP B).
A calibration mix of ten compounds at 10 µg mL^−1 in 1:1 (v/v) water:ACN was used (theophylline, phenyltetrazole, benzimidazole, colchicine, phenyltheophilline, acetophenone, indole, propiophenone, butyrophenone and valerophenone (all Sigma-Aldrich)). Test compounds were prepared at 0.25 mM in 1:1 (v/v) water:ACN. Samples (n = 2 for calibration standards; n = 1 for test compounds) were analysed using UPLC-PDA as described above. Retention times of calibration compounds are used to calculate retention factor (k), which is plotted against literature CHI values for each compound.
Where tr is the retention time of the analyte and t0 is the retention time of an unretained compound
Calculation of chromatographic hydrophobicity index (CHI)
CHI = (𝑘 x slope) − intercept Eqn.4
Where k is the retention factor of the analyte.
Calculation of CHI Log D [1]
Where CHI is the chromatographic hydrophobicity index obtained using Equation 4
Data set [4] can be described thus: Theoretical fraction unbound for hepatocytes (fuhep) from log D7.4. The following applies: calculated from experimental log D7.4 as Kilford et al. (2008), cell volume 3.9 µL/million cells. Also noted: species or system human. An excerpt: For all MDMB- compounds, and for most (S)-AMB-compounds differences in CLint were within 2.5-fold. […] There are multiple factors which can cause intrinsic clearance by HHeps to differ from HLM [89]. Differences may reflect the relative efficiency of transport of SCRAs and their enantiomers through cell membranes in HHeps and the relative abundance of particular enzymes in HLM and HHeps, targeting different sites of metabolism, particularly carboxylesterases. A dominance of non-CYP enzymes in metabolic clearance can result in CLint being faster in HHeps. […] Glucuronidation is therefore unlikely to cause the differences in clearance rates observed. […] CES-1 is one of the most abundant enzymes in human hepatocytes, present in the endoplasmic reticulum and to a lesser extent in the cytosol. Non-specific binding of drugs to microsomes and hepatocytes results in a lower unbound fraction available to interact with enzymes; differences in binding between HLM and HHep incubations may therefore also cause clearance differences. Non-specific binding may be estimated from log P data. Theoretical fraction unbound for microsomes (fumic) and hepatocytes (fuhep) was calculated using experimental pHLM and pHHep concentrations and incubation volumes, and experimental log D7.4 values, as described by Kilford et al. (2008) with hepatocyte cell volume as 3.9 µL/million cells. […]

Another data set is described as follows: in vitro. The following applies: human, plasma, pH 7.4.
Details of data set [5]: method as in PMID 17712819. The following applies: cited from earlier work.

The values that follow come from paper PMC7961380, “A Systematic Study of the In Vitro Pharmacokinetics and Estimated Human In Vivo Clearance of Indole and Indazole-3-Carboxamide Synthetic Cannabinoid Receptor Agonists Detected on the Illicit Drug Market” (Molecules, 2021).

Procedure for in vitro: The pooled plasma used for both plasma stability and plasma binding studies originated from 50 donors, collected as whole blood from donors in the United States at an FDA-approved collection center, processed into plasma by centrifugation and immediately frozen (Innovative Research; Novi, MI, USA) and purchased from Patricell (Nottingham, UK). […] Stock solutions were prepared in DMSO. […] For incubations without inhibitor an equivalent volume of DMSO was included. Plasma mixture was pre-incubated at 37 °C for 5 min. Test compounds (5 µM) and procaine (positive control, 50 µM) were added to pre-warmed plasma mixture containing inhibitors. Incubation volume was 1 mL. Samples were mixed and 80 µL was immediately sampled and quenched into 200 µL ACN spiked with donepezil (internal standard (IS), 50 ng mL^−1). […] Peak area ratio of analyte to IS was used to determine half-lives of test compounds in plasma, both with and without the presence of esterase inhibitors.
The human plasma used was pooled from 50 donors, and was collected as whole blood from donors in
the United States at an FDA-approved collection center, processed into plasma by centrifugation and
The stability of the tested SCRAs, select metabolites and procaine control in pooled human plasma over
inhibitors bis(4-nitrophenyl) phosphate (BNPP) and phenyl methyl sulphonyl fluoride (PMSF) is

Consider `Cc1ccc(C(=O)c2cn(CCCCCI)c3ccccc23)c2ccccc12` [I-JWH-122, (1-(5-iodopentyl)-1H-indol-3-yl)(4-methylnaphthalen-1-yl)methanone], for which, in data set [1], the CLint was 235 mL/min/kg and the t1/2 is on record as 5.26 min.
In the case of `CCCCCn1cc(C(=O)c2ccc(C)c3ccccc23)c2ccccc21` [JWH-122, (4-methyl-1-naphthyl)-(1-pentylindol-3-yl)methanone], in data set [1], the CLint was 1350 mL/min/kg and the t1/2 is 0.95 min.
`CCCCCn1cc(C(=O)c2ccc(CC)c3ccccc23)c2ccccc21` [JWH-210, 4-ethylnaphthalen-1-yl-(1-pentylindol-3-yl)methanone]: the log partition coefficient (log P) (commonly the decadic logarithm of the partition coefficient of the neutral form, usually between octanol and water) in data set [2] is recorded as 7.5.
On to `Cc1ccc(C(=O)c2cn(CCCCCF)c3ccccc23)c2ccccc12` [MAM-2201], for which, in data set [1], the CLint is 1408 mL/min/kg and the t1/2 is on record as 0.88 min.
Consider `C=CCCCn1nc(C(=O)NC(C(=O)OC)C(C)(C)C)c2ccccc21` (centres unmarked) [MDMB-4en-PINACA (5), methyl 3,3-dimethyl-2-[1-(pent-4-en-1-yl)-1H-indazole-3-carboxamido] butanoate], for which, in data set [3], the chromatographic logD (in general, a lipophilicity value derived from retention on a column) turned out to be 4.95. The “estimated fuhep (theoretical fraction unbound for hepatocytes)” value in data set [4] is given as 0.47.
For the molecule `CCN(CC)CCOC(=O)c1ccc(N)cc1` [Procaine], in the data set “in vitro”, the half-life (commonly the time needed for the level to fall by half in the phase considered) came out at 6.5 min; the amount remaining (commonly what is left of the initial amount, in per cent) at 3 h came out at 0.03 ± 0.02%; the fraction remaining at 5 h is 0.08%.
Regarding `CCCCCc1cc(O)c2c(c1)OC(C)(C)[C@@H]1CCC(C)=C[C@@H]21` [THC, Δ9-tetrahydrocannabinol], the protein-bound in plasma in data set [5] was 95–99%. For the same molecule, the lipophilicity (log P) in data set [2] is given as 6.7.
